Converted amounts (≈) assume the structure as drawn.
test system: Staphylococcus aureus; experiment: Antibacterial activity against methicillin-sensitive Staphylococcus aureus isolate cpu0211 after 18 to 20 hrs by agar dilution method; type: functional

| Structure (SMILES) | MIC [µg/mL] |
| --- | --- |
| C=C[C@]1(C)C[C@@H](OC(=O)CSCc2csc(N)n2)[C@]2(C)[C@H](C)CC[C@]3(CCC(=O)[C@H]32)[C@@H](C)[C@@H]1O | 0.5 (≈ 0.987 µM) |

test system: Staphylococcus aureus; experiment: Antibacterial activity against methicillin-sensitive Staphylococcus aureus isolate cpu0587 after 18 to 20 hrs by agar dilution method; type: functional

| Structure (SMILES) | MIC [µg/mL] |
| --- | --- |
| C=C[C@]1(C)C[C@@H](OC(=O)CSCc2csc(N)n2)[C@]2(C)[C@H](C)CC[C@]3(CCC(=O)[C@H]32)[C@@H](C)[C@@H]1O | 2 (≈ 3.95 µM) |

test system: Staphylococcus aureus; experiment: Antibacterial activity against methicillin-sensitive Staphylococcus aureus isolate cpu1044 after 18 to 20 hrs by agar dilution method; type: functional

| Structure (SMILES) | MIC [µg/mL] |
| --- | --- |
| C=C[C@]1(C)C[C@@H](OC(=O)CSCc2csc(N)n2)[C@]2(C)[C@H](C)CC[C@]3(CCC(=O)[C@H]32)[C@@H](C)[C@@H]1O | 2 (≈ 3.95 µM) |

test system: Staphylococcus aureus; experiment: Antibacterial activity against methicillin-sensitive Staphylococcus aureus isolate cpu1344 after 18 to 20 hrs by agar dilution method; type: functional

| Structure (SMILES) | MIC [µg/mL] |
| --- | --- |
| C=C[C@]1(C)C[C@@H](OC(=O)CSCc2csc(N)n2)[C@]2(C)[C@H](C)CC[C@]3(CCC(=O)[C@H]32)[C@@H](C)[C@@H]1O | 0.125 (≈ 0.247 µM) |

test system: Staphylococcus aureus; experiment: Antibacterial activity against methicillin-resistant Staphylococcus aureus isolate cpu0446 after 18 to 20 hrs by agar dilution method; type: functional

| Structure (SMILES) | MIC [µg/mL] |
| --- | --- |
| C=C[C@]1(C)C[C@@H](OC(=O)CSCc2csc(N)n2)[C@]2(C)[C@H](C)CC[C@]3(CCC(=O)[C@H]32)[C@@H](C)[C@@H]1O | 0.25 (≈ 0.493 µM) |

test system: Staphylococcus aureus; experiment: Antibacterial activity against methicillin-resistant Staphylococcus aureus isolate cpu0887 after 18 to 20 hrs by agar dilution method; type: functional

| Structure (SMILES) | MIC [µg/mL] |
| --- | --- |
| C=C[C@]1(C)C[C@@H](OC(=O)CSCc2csc(N)n2)[C@]2(C)[C@H](C)CC[C@]3(CCC(=O)[C@H]32)[C@@H](C)[C@@H]1O | 0.0625 (≈ 0.123 µM) |

test system: Staphylococcus aureus; experiment: Antibacterial activity against methicillin-resistant Staphylococcus aureus isolate cpu1098 after 18 to 20 hrs by agar dilution method; type: functional

| Structure (SMILES) | MIC [µg/mL] |
| --- | --- |
| C=C[C@]1(C)C[C@@H](OC(=O)CSCc2csc(N)n2)[C@]2(C)[C@H](C)CC[C@]3(CCC(=O)[C@H]32)[C@@H](C)[C@@H]1O | 0.5 (≈ 0.987 µM) |

test system: Staphylococcus aureus; experiment: Antibacterial activity against methicillin-resistant Staphylococcus aureus isolate cpu3256 after 18 to 20 hrs by agar dilution method; type: functional

| Structure (SMILES) | MIC [µg/mL] |
| --- | --- |
| C=C[C@]1(C)C[C@@H](OC(=O)CSCc2csc(N)n2)[C@]2(C)[C@H](C)CC[C@]3(CCC(=O)[C@H]32)[C@@H](C)[C@@H]1O | 0.5 (≈ 0.987 µM) |

test system: Staphylococcus epidermidis; experiment: Antibacterial activity against methicillin-sensitive Staphylococcus epidermidis isolate cpu0315 after 18 to 20 hrs by agar dilution method; type: functional

| Structure (SMILES) | MIC [µg/mL] |
| --- | --- |
| C=C[C@]1(C)C[C@@H](OC(=O)CSCc2csc(N)n2)[C@]2(C)[C@H](C)CC[C@]3(CCC(=O)[C@H]32)[C@@H](C)[C@@H]1O | 0.125 (≈ 0.247 µM) |

test system: Staphylococcus epidermidis; experiment: Antibacterial activity against methicillin-sensitive Staphylococcus epidermidis isolate cpu0347 after 18 to 20 hrs by agar dilution method; type: functional

| Structure (SMILES) | MIC [µg/mL] |
| --- | --- |
| C=C[C@]1(C)C[C@@H](OC(=O)CSCc2csc(N)n2)[C@]2(C)[C@H](C)CC[C@]3(CCC(=O)[C@H]32)[C@@H](C)[C@@H]1O | 0.125 (≈ 0.247 µM) |

test system: Staphylococcus epidermidis; experiment: Antibacterial activity against methicillin-sensitive Staphylococcus epidermidis isolate cpu2089 after 18 to 20 hrs by agar dilution method; type: functional

| Structure (SMILES) | MIC [µg/mL] |
| --- | --- |
| C=C[C@]1(C)C[C@@H](OC(=O)CSCc2csc(N)n2)[C@]2(C)[C@H](C)CC[C@]3(CCC(=O)[C@H]32)[C@@H](C)[C@@H]1O | 0.125 (≈ 0.247 µM) |

test system: Staphylococcus epidermidis; experiment: Antibacterial activity against methicillin-sensitive Staphylococcus epidermidis isolate cpu1561 after 18 to 20 hrs by agar dilution method; type: functional

| Structure (SMILES) | MIC [µg/mL] |
| --- | --- |
| C=C[C@]1(C)C[C@@H](OC(=O)CSCc2csc(N)n2)[C@]2(C)[C@H](C)CC[C@]3(CCC(=O)[C@H]32)[C@@H](C)[C@@H]1O | 0.125 (≈ 0.247 µM) |

test system: Staphylococcus epidermidis; experiment: Antibacterial activity against methicillin-resistant Staphylococcus epidermidis isolate cpu2623 after 18 to 20 hrs by agar dilution method; type: functional

| Structure (SMILES) | MIC [µg/mL] |
| --- | --- |
| C=C[C@]1(C)C[C@@H](OC(=O)CSCc2csc(N)n2)[C@]2(C)[C@H](C)CC[C@]3(CCC(=O)[C@H]32)[C@@H](C)[C@@H]1O | 0.125 (≈ 0.247 µM) |

test system: Staphylococcus epidermidis; experiment: Antibacterial activity against methicillin-resistant Staphylococcus epidermidis isolate cpu3889 after 18 to 20 hrs by agar dilution method; type: functional

| Structure (SMILES) | MIC [µg/mL] |
| --- | --- |
| C=C[C@]1(C)C[C@@H](OC(=O)CSCc2csc(N)n2)[C@]2(C)[C@H](C)CC[C@]3(CCC(=O)[C@H]32)[C@@H](C)[C@@H]1O | 0.125 (≈ 0.247 µM) |

test system: Staphylococcus epidermidis; experiment: Antibacterial activity against methicillin-resistant Staphylococcus epidermidis isolate cpu3569 after 18 to 20 hrs by agar dilution method; type: functional

| Structure (SMILES) | MIC [µg/mL] |
| --- | --- |
| C=C[C@]1(C)C[C@@H](OC(=O)CSCc2csc(N)n2)[C@]2(C)[C@H](C)CC[C@]3(CCC(=O)[C@H]32)[C@@H](C)[C@@H]1O | 0.125 (≈ 0.247 µM) |

test system: Staphylococcus epidermidis; experiment: Antibacterial activity against methicillin-resistant Staphylococcus epidermidis isolate cpu2736 after 18 to 20 hrs by agar dilution method; type: functional

| Structure (SMILES) | MIC [µg/mL] |
| --- | --- |
| C=C[C@]1(C)C[C@@H](OC(=O)CSCc2csc(N)n2)[C@]2(C)[C@H](C)CC[C@]3(CCC(=O)[C@H]32)[C@@H](C)[C@@H]1O | 0.125 (≈ 0.247 µM) |

test system: Staphylococcus aureus; experiment: Ratio of amoxicillin MIC to compound MIC for methicillin-resistant Staphylococcus aureus isolate cpu0446; type: functional

| Structure (SMILES) | Ratio |
| --- | --- |
| C=C[C@]1(C)C[C@@H](OC(=O)CSCc2csc(N)n2)[C@]2(C)[C@H](C)CC[C@]3(CCC(=O)[C@H]32)[C@@H](C)[C@@H]1O | 4 |

test system: Staphylococcus aureus; experiment: Ratio of amoxicillin MIC to compound MIC for methicillin-resistant Staphylococcus aureus isolate cpu0887; type: functional

| Structure (SMILES) | Ratio |
| --- | --- |
| C=C[C@]1(C)C[C@@H](OC(=O)CSCc2csc(N)n2)[C@]2(C)[C@H](C)CC[C@]3(CCC(=O)[C@H]32)[C@@H](C)[C@@H]1O | 4 |

test system: Staphylococcus aureus; experiment: Ratio of amoxicillin MIC to compound MIC for methicillin-resistant Staphylococcus aureus isolate cpu1098; type: functional

| Structure (SMILES) | Ratio |
| --- | --- |
| C=C[C@]1(C)C[C@@H](OC(=O)CSCc2csc(N)n2)[C@]2(C)[C@H](C)CC[C@]3(CCC(=O)[C@H]32)[C@@H](C)[C@@H]1O | 4 |

test system: Staphylococcus aureus; experiment: Ratio of amoxicillin MIC to compound MIC for methicillin-resistant Staphylococcus aureus isolate cpu3256; type: functional

| Structure (SMILES) | Ratio |
| --- | --- |
| C=C[C@]1(C)C[C@@H](OC(=O)CSCc2csc(N)n2)[C@]2(C)[C@H](C)CC[C@]3(CCC(=O)[C@H]32)[C@@H](C)[C@@H]1O | 4 |

test system: Staphylococcus aureus; experiment: Ratio of tiamulin MIC to compound MIC for methicillin-resistant Staphylococcus aureus isolate cpu0446; type: functional

| Structure (SMILES) | Ratio |
| --- | --- |
| C=C[C@]1(C)C[C@@H](OC(=O)CSCc2csc(N)n2)[C@]2(C)[C@H](C)CC[C@]3(CCC(=O)[C@H]32)[C@@H](C)[C@@H]1O | 4 |

test system: Staphylococcus aureus; experiment: Ratio of tiamulin MIC to compound MIC for methicillin-resistant Staphylococcus aureus isolate cpu0887; type: functional

| Structure (SMILES) | Ratio |
| --- | --- |
| C=C[C@]1(C)C[C@@H](OC(=O)CSCc2csc(N)n2)[C@]2(C)[C@H](C)CC[C@]3(CCC(=O)[C@H]32)[C@@H](C)[C@@H]1O | 4 |

test system: Staphylococcus aureus; experiment: Ratio of tiamulin MIC to compound MIC for methicillin-resistant Staphylococcus aureus isolate cpu1098; type: functional

| Structure (SMILES) | Ratio |
| --- | --- |
| C=C[C@]1(C)C[C@@H](OC(=O)CSCc2csc(N)n2)[C@]2(C)[C@H](C)CC[C@]3(CCC(=O)[C@H]32)[C@@H](C)[C@@H]1O | 4 |

test system: Staphylococcus aureus; experiment: Ratio of tiamulin MIC to compound MIC for methicillin-resistant Staphylococcus aureus isolate cpu3256; type: functional

| Structure (SMILES) | Ratio |
| --- | --- |
| C=C[C@]1(C)C[C@@H](OC(=O)CSCc2csc(N)n2)[C@]2(C)[C@H](C)CC[C@]3(CCC(=O)[C@H]32)[C@@H](C)[C@@H]1O | 4 |

From ChEMBL document CHEMBL2086231, “Novel pleuromutilin derivatives as antibacterial agents: synthesis, biological evaluation and molecular docking studies” (2012)
